Format in all cases: cell-based, human
Assay [1] relates to E-Selectin. The assay can be described thus: E Selectin cell surface expression (FACS). As to the method:
(§1) Flow cytometric analysis of cell surface expression of E-Selectin and VCAM-1 was performed as previously described (11) using 10 μg/ml mouse monoclonal primary antibodies to E-Selectin (49-1B11) or VCAM-1 (51-10C9) generated in our laboratory (Gamble J R, Khew-Goodall Y, Vadas M A. (1993) supra). Secondary antibodies used were anti-mouse fluorescein-isothiocyanate, or for GFP-expressing cells, goat anti-mouse IgG R-phycoerythrin conjugate (Southern Biotech Birmingham, Ala., USA). The median fluorescence intensity was determined using a Coulter Epics Profile XL flow cytometer.

Assay [2] concerns HUVEC. The assay can be described thus: Cell survival in serum-free medium (MTS). The arrangement: effect of inhibitor on cell survival of control cells: dose or concentration left out as unconfirmed.
Description: Endothelial cells were plated into gelatin coated 96 well microtitre trays at 3×10^3 cells per well in serum-free medium. MTS (Promega, WI, USA) was used to measure cell viability. Optical density at 490 nm was measured on Day 0, Day 1, Day 2, and Day 3.
Cell survival was measured in serum-free medium supplemented with ECGs and in non-tissue culture non-adhesive trays coated with 1% bovine serum albumin under serum free culture conditions.
For assay [3], the system named is VCAM-1. The assay can be described thus: VCAM-1 cell surface expression (FACS). As to the method: as §1
In assay [4] the test system is PECAM-1. Nature of the assay: PECAM-1 expression (flow cytometry, Western blot). As to conditions: normal HUVEC. As to the method:
SDS-polyacrylamide gel electrophoresis was performed as described (Pitson S M, Moretti P A, Zebol J R, Xia P, Gamble J R, Vadas M A et al. (2000) J Biol Chem; 275(43):33945-33950) on cell lysates using 12% acrylamide gels. […] The membrane was incubated with horseradish peroxidase-conjugated anti-mouse IgG or anti-rabbit IgG (Pierce) and immunocomplexes were detected using enhanced chemiluminescence (Amersham Pharmacia Biotech).
Flow cytometric analysis of cell surface expression of PECAM-1 and VE-Cadherin was performed as previously described (Xia P, Gamble J R, Rye K A, Wang L, Hii C S, Cockerill P et al. (1998) supra) using 10 µg/ml mouse monoclonal primary antibodies to PECAM-1 (51-6F6) or VE-Cadherin (55-7H1) generated in our laboratory (Gamble J R, Khew-Goodall Y, Vadas M A. (1993) J Immunol; 150(10):4494-4503). […] The median fluorescence intensity was determined using a Coulter Epics Profile XL flow cytometer. FAC S analysis of the cell surface expression of CD34 was done by incubating 1×10^6 cells with […] of anti-CD34, R-phycoerythrin (R-PE)-conjugated mouse anti-human mAb (BD Pharmingen, San Diego, Calif.) for 30 minutes at room temperature, and then determining the median fluorescence intensity.

In assay [5] the test system is PECAM-1. Nature of the assay: PECAM-1 phosphorylation (Western blot). Conditions: data not shown. As to the method:
SDS-polyacrylamide gel electrophoresis was performed as described (Pitson S M, Moretti P A, Zebol J R, Xia P, Gamble J R, Vadas M A et al. (2000) J Biol Chem; 275(43):33945-33950) on cell lysates using 12% acrylamide gels. Proteins were transferred to PVDF membranes, blocked in 5% low fat milk in PBS with 0.1% Tween20 for one hour, and incubated overnight at 4 C with M2 mouse anti-FLAG antibody (Sigma, St Louis, Mo.), rabbit polyclonal anti-phospho-Akt (Cell Signaling Technology), rabbit polyclonal anti-Akt (Cell Signaling Technology), anti-phosphotyrosine (Cell Signaling Technology), or for one hour at room temperature with mouse anti-cyclin D1 or cyclin E (Santa Cruz Biotechnology) or mouse monoclonal antibody directed to PECAM-1 (51-6F6) raised at The Hanson Institute, Adelaide, Australia. The membrane was incubated with horseradish peroxidase-conjugated anti-mouse IgG or anti-rabbit IgG (Pierce) and immunocomplexes were detected using enhanced chemiluminescence (Amersham Pharmacia Biotech).
In general terms: A western blot detects proteins with antibodies after separation by electrophoresis.

[6] abbreviates: pertussis toxin 50 ng/ml 18 hours, then TNFα 0.5 ng/ml four hours, control cells or SK cells.
Where [7] appears, read: pertussis toxin 50 ng/ml, cells over-expressing SK or EV.
Setting [8] is: 5 μM for four hours, SK and EV cells.

“Also recorded” adds a separate entry of the source. Read-outs that look alike come from different tables or passages of the source.

For the compound pertussis toxin, in assay [1] (setting [6]), the “effect of pre-treatment on TNFα-induced E Selectin expression” value is listed as “did not alter”. Besides, in assay [1] (setting [7]), the “effect on basal or TNFα-induced E Selectin expression” value is listed as “did not inhibit”. Moreover, the “effect on SK-mediated cell survival” value in assay [2] (pertussis toxin 50 ng/ml, HUVEC over-expressing SK) is on record as “not inhibited”. The “effect of pretreatment on adhesion molecule response to exogenous SIP” value in assay [3] (SK and EV cells, adhesion molecule (VCAM-1 / E Selectin) not specified) is given as “inhibited”. In addition, in assay [3] (setting [6]), the “effect of pre-treatment on TNFα-induced VCAM-1 expression” value is “did not alter”. Further, in assay [3] (setting [7]), the “effect on basal or TNFα-induced VCAM-1 expression” value was “did not inhibit”.

As to `COc1cccc(-c2cc(=O)c3ccccc3o2)c1N` [PD98059], in assay [2] (EV cells, Day 2), the “effect of inhibitor on cell survival of control cells” value is given as “significantly reduced cell survival”.

As to `CCCCCCCCCCCCC/C=C/[C@@H](O)[C@@H](N)COP(=O)(O)O` [S1P], the “E Selectin expression after exogenous SIP” value in assay [1] (setting [8]) is recorded as “up-regulation”. For the same compound, the “VCAM-1 expression after exogenous SIP” value in assay [3] (setting [8]) is “up-regulation”. The “PECAM-1 expression after exogenous S1P” value in assay [4] is “did not induce PECAM-1 expression; also recorded: had no effect”. Moreover, the “PECAM-1 phosphorylation status after exogenous S1P” value in assay [5] was “had no effect”.

Take `N#CC(=C(/N)Sc1ccccc1N)/C(C#N)=C(\N)Sc1ccccc1N` [U0126]: the “effect of inhibitor on cell survival of control cells” value in assay [2] is reported as “significantly reduced cell survival”.

The record behind these values is patent publication US20060205688A1, “Method of modulating epithelial cell activity by modulating the functional levels of sphingosine kinase” (priority 2002, published 2006).
